# Tested on: DMH neurons
# Assay: ACY775-responsive DMH neurons in TRAP2 DIO mice (c-fos, HDAC6 depletion, caspase3 ablation)
# Type: in vivo
# Experimental: Following the bilateral injection of AAV-sgHDAC6 into the arcuate nucleus of Agrp-ires-cre::LSL-Cas9-GFP (Agrp-Cre^+/−::Cas9^+/−) or control LSL-Cas9-GFP (Cas9^+/−) mice, immunostaining to detect the expression of mCherry and GFP was performed. AAV-sg-HDAC6 injected Agrp-Cre^+/−::Cas9^+/− (HDAC6^Agrp-Δ) and Cas9^+/− (HDAC6^WT) DIO mice (n=7 for each group) were fasted for 24 hours, and injected with ACY775 (10 mg/kg. i.p). Hourly total dark cycle food intake (g) (n=7 for each group) of these mice after ACY775 injection was measured. Body weight of AAV-sg-HDAC6 injected HDAC6^Agrp-Δ (n=11) and HDAC6^WT (n=6) mice were measured during 3 weeks of ACY775 (10 mg/kg/day, i.p.) treatment. Daily average food intake of HDAC6^Agro-Δ (n=11) and HDAC6^WT (n=6) mice was measured during 3 weeks of ACY775 (10 mg/kg/day, i.p.) treatment. 24-hour food intake average of HDAC Agrp- and HDAC6^WT mice during the 3 weeks of ACY775 treatment was assessed. Serum leptin level (ng/ml) of HDAC6^Agrp-Δ and HDAC6^WT mice after 2 weeks of ACY775 treatment (n=13 for HDAC6^WT and n=18 for HDAC6^Agrp-Δ) was measured. Lean mass (g); fat mass; and fat percentage (%) of HDAC Agrp- and HDAC6^WT DIO mice after 3 weeks of ACY775 treatment was measured by DEXA scan. The HDAC6 inhibitor responsive neurons in the dorsomedial hypothalamus (DMH) were assessed. Immunostaining and quantification of c-Fos expression was performed in the DMH of DIO mice following one-time ACY775 treatment (10 mg/kg, i.p.).
# Coordinates used for aav-sg-HDAC6 injection into the DMH of c-Fos-iCreER::LSL-Cas9-GFP (TRAP2-Cas9) mouse, mCherry immunostaining in the aav-sg-HDAC6 injected TRAP2-cas9 obese mice, which were treated three weeks earlier with one dose of ACY775 (10 mg/kg, i.p.) (TRAP2-HDAC6^DMH-Δ) or vehicle (TRAP2-HDAC6^WT), followed by 4-Hydroxytamoxifen (4-OHT) injection, were assessed. TRAP2-HDAC6^WT and TRAP2-HDAC6^DMH-Δ mice were fasted 24-h and treated with ACY775 (10 mg/kg, i.p.). Hourly and total dark cycle food intake (g) (n=4 for each group) was determined for these mice after ACY775 injection. Daily body weight of TRAP2-HDAC6^DMH-Δ (n=10) or TRAP2-HDAC6^WT (n=11) DIO mice was measured during 2 weeks of ACY775 (10 mg/kg/day, i.p) treatment. Daily average food intake of TRAP2-HDAC6^DMH-Δ (n=10) or TRAP2-HDAC6^WT (n=11) DIO mice was measured during 2 weeks of ACY775 treatment.
# To investigate whether activity of other neuronal populations are altered after HDAC6 inhibitor treatment, c-fos staining was performed in the whole brain of DIO mice, which were acutely treated with ACY775. […] Some of the DMH neurons express high levels of LepRb and involved in regulation of appetite […]. […]
compound,measurement,setting,value
"O=C(NO)c1cnc(NC2(c3cccc(F)c3)CCCCC2)nc1 [ACY775, 2-[[1-(3-fluorophenyl)cyclohexyl]amino]-N-hydroxy-5-pyrimidinecarboxamide]",food intake in fasted caspase3^on-DMH vs caspase3^off-DMH mice,10 mg/kg i.p.,significantly higher than caspase3^off-DMH mice
same,weight and food intake in TRAP2-HDAC6^DMH-Δ and TRAP2-HDAC6^WT mice,"2 weeks, 10 mg/kg/day i.p.",lost weight and food intake was reduced equally in both groups
same,c-fos positive cells in DMH,"DIO mice, acute treatment, fasting",major increase in c-fos positive cell number
same,body weight and food consumption in caspase3^on-DMH mice,"chronic, 10 mg/kg/day i.p.",neither reduced the body weight nor the food consumption

# From patent US20240252496A1, “SELECTIVE HYPOTHALAMUS PERMEABLE HDAC6 INHIBITORS FORTREATMENT OF LEPTIN-RESISTANT OBESITY” (The Children’s Medical Center Corporation, priority 2022, published 2024)
